Measurements from US20170223976A1, “MODIFIED MILK POWDER CONTAINING 1,5-ANHYDRO-D-GLUCITOL” (NIHON STARCH CO., LTD., priority 2015, published 2017).

What was measured:
PC12 cells [1] = assay: Determination of neurite outgrowth rate in PC12 cells (image count); format: cell-based; details: NGF added section (100 ng/mL), 96 hours
Protocol: PSG-1 belongs to an immunoglobulin super family which includes some having the function of promoting neurogenesis. Then, the influence of 1,5-AG upon neuritogenesis was investigated. This was evaluated in a test system using PC12 cells which are generally used for the evaluation of neuritogenesis.
PC12 cells (Lot No. 48, Lot No. 51) (RIKEN cell bank, material 1)
DMEM medium prepared by adding 0.1% of FBS, 0.1% of HS, 1 ng/mL NGF and 1% of penicillin-streptomycin
PC12 cells were initiated in a T-75 flask by using a growth medium to be cultured in a CO2 incubator (5% CO2, 37° C., moistening). Medium exchange was carried out every 2 days, the cells were collected when 80% confluence was reached, and cells having a passage number of 2 were used in this test. Stated more specifically, after the cells were washed with D-PBS (−), the cells were separated by using 0.05% trypsin, and a growth medium was added to neutralize trypsin. Then, the supernatant was removed by centrifugation (180 g, 5 minutes), a growth medium was added to stir the cells, the number of the cells was counted by using a corpuscle calculating board, and a growth medium was used to achieve a target concentration (2.0×10^3 cells/100 μL).
(§1) A test was carried out at five concentrations (1.6, 8, 40, 200 and 1,000 μg/mL) of 1,5-AG. Stated more specifically, a 1,5-AG aqueous solution having a concentration of 100 mg/mL was diluted with water to prepare 100 times-concentrated solutions having concentrations of 0.16, 0.8, 4, 20 and 100 mg/mL. These 100 times-concentrated solutions were each added to a test medium in a ratio of 1/100 to achieve final concentrations of 1.6, 8, 40, 200 and 1,000 μg/mL and sterilized with a filter to be used in the test. As a negative control, water was added to a medium in a ratio of 1/100 and sterilized with a filter to be used in the test. As a positive control, a test medium containing a 100 ng/mL nerve growth factor (NGF) was used.
(§2) A growth medium was used to adjust the cells to a concentration of 2.0×10^3 cells/100 μL/well, and the cells were scattered in a collagen-coated 96-well plate to be cultured in a CO2 incubator (5% CO2, 37° C., moistening) for 24 hours. After culture, the medium was replaced by a sample-containing test medium (100 μL), and the cells were cultured in a CO2 incubator for 96 hours. After the end of culture, an image of the cells in each well was taken with a phase difference microscope and used for the measurement of nuetrite outgrowth rate, and nuclei and cytoplasms were fluorescent dyed by using a neurite outgrowth staining kit to measure the number of living cells and the amount of neurite outgrowth. These procedures were carried out five times each.
Based on the image taken above, the total number of cells, the number of cells showing the same or higher neurite outgrowth than the cell length and the number of cells showing neurites having a length 2 times or more than the cell length were measured from the image of the cells. The percentage (%) of cells showing neurite outgrowth was calculated from the measurement values.

PC12 cells [2] = assay: Fluorescence determination of number of living cells and amount of neurite outgrowth (neurite outgrowth staining kit); format: cell-based; details: NGF added section (100 ng/mL)
Protocol: as §1, §2
After the end of culture, the number of living cells and the amount of neurite outgrowth were determined by using a neurite outgrowth staining kit. Stated more specifically, after the medium was removed, 100 μL of a staining solution (prepared by diluting Cell Viability Indicator and Cell Membrane Stain attached to the kit with calcium magnesium-containing PBS 1,000 times) was added to each well to incubate the cells at 37° C. for 20 minutes. After incubation, the staining solution was removed, 100 μL of a background suppression solution (prepared by diluting the background suppression dye attached to the kit with calcium magnesium-containing PBS 100 times) was added to each well so as to measure fluorescence intensity with a micro plate reader (measurement of the number of living cells: excitation wavelength of 495 nm, fluorescence wavelength of 515 nm, measurement of the amount of neurite outgrowth: excitation wavelength of 555 nm, fluorescent wavelength of 565 nm).

## NGF: positive control: a test medium containing a 100 ng/mL nerve growth factor (NGF) [reference compound]
PC12 cells [1]
  cells showing a neurite outgrowth rate of 1 time or more: 68.8%
  cells showing a neurite outgrowth rate of 2 times or more: 54.5%
PC12 cells [2]
  amount of neurite outgrowth per cell as compared with the non-added section: 183.1%
